Tests used:
Polymerase = conditions: 10, 5, 2 or 1 μM, 30° C., 20 nM DNA
Procedure: Polymerase (15 μg/ml) is incubated at 30° C. in buffer (50 mM TRIS pH 7.5, 0.05% Tween 20, 6 mM MgSO4, 1 mM EDTA, 50 mM NaCl) with 20 nM DNA. […] Tubes are incubated at 30° C. and aliquots are taken at 0.33, 0.66, 1, 2, 5, and 15 mins from the 4 reaction tubes for quenching and 15% urea acrylamide gel analysis. 1 mM dNTPs are added to the remaining reaction tubes and after a further 10 mins an aliquot is taken for gel analysis (chase).

actively growing E. coli = conditions: for degradation of triphosphate in the presence of actively growing E. coli: preliminary characterization, HPLC and MALDI
Procedure: dNaMTP or d5SICSTP (10 mM each) were added to media to a final concentration of 0.25 mM. Cells were incubated with the substrate with shaking at 37° C. for 30 min and then pelleted (8,000 rfu for 5 min, 4° C.). An aliquot of the media fraction (40 μl) was mixed with acetonitrile (80 μl) to precipitate proteins, and then incubated at RT for 30 min. Samples were either analyzed immediately by HPLC or stored at −80° C. until analysis. Analysis began with centrifugation (12,000 rfu for 10 min, RT), then the pellet was discarded, and the supernatant was reduced to ˜20 μl, resuspended in 95% 0.1 M TEAB, pH 7.5; 5% acetonitrile, to a final volume of 50 μl, and analyzed by HPLC.
Samples were applied to a LC column (3 μm C18 300 Å, 250×4.6 mm) and subjected to a linear gradient of 0-40% with 20% 0.1 M TEAB, pH 7.5; 80% acetonitrile over 40 min at a flow rate of 1 ml/min.
Injection series included two extra control samples containing 5 nmol of dNaMTP or d5SICSTP. […] After peak integration, the ratio of the unknown peak to the control peak adjusted for the loss from the extraction step (62% and 70% loss for dNaM and d5SICS, respectively), provided a measure of the amount of each of the moieties in a sample. To determine the relative concentrations of unnatural nucleotide inside a cell, the amount of imported unnatural nucleotide was then divided by the volume of cells, which was calculated from the volume of a single E. coli cell of (1 μm^3) multiplied by the number of cells in each culture (OD600 of 1.0 equal to 1×10^9 cells per ml). An RpNTT2 sample was used as a negative control and its signal was subtracted to account for any incomplete washing of nucleotide species from the media.

PtNTT2 [1] = test: Uptake of d5SICSTP or dNaMTP into E. coli C41(DE3) expressing PtNTT2, media and cytoplasmic fractions by HPLC; type: cell-based, Escherichia coli C41(DE3) expressing PtNTT2
Procedure: (§1) E. coli C41(DE3) freshly transformed with pCDF-1b-PtNTT2 was grown in 2×YT with streptomycin overnight, then diluted (1:100) into fresh 2×YT medium (1 ml of culture per uptake with [α-^32P]-dATP; 2 ml of culture per uptake with d5SICSTP or dNaMTP) supplemented with 50 mM potassium phosphate (KPi) and streptomycin. […] Cells were grown to an OD600 of ˜0.6 and expression was induced by the addition of IPTG (1 mM). The culture was allowed to grow for another hour (final OD600 ˜1.2) and then assayed directly for uptake as described below using a method adapted from Haferkamp, et al.
To analyze the intracellular dephosphorylation of unnatural nucleoside triphosphates, cell pellets were subjected to 3×100 μl washes of ice cold KPi (50 mM). Pellets were then resuspended in 250 μl of ice cold KPi (50 mM) and lysed with 250 μl of Lysis buffer L7 of the PureLink Quick Plasmid DNA Miniprep Kit (200 mM NaOH, 1% w/v SDS), after which the resulting solution was incubated at RT for 5 min. Precipitation buffer N4 (350 μl, 3.1 M potassium acetate, pH 5.5) was added, and the sample was mixed to homogeneity.

E. coli C41(DE3) = test: pINF replication in E. coli C41(DE3)-pACS: growth (OD600) and relative plasmid copy number; conditions: 0.25 mM triphosphates; absence of pINF
Procedure: A single clone of freshly transformed E. coli C41(DE3)-pACS was grown overnight in 2×YT medium (3 ml) supplemented with streptomycin (50 μg/ml) and KPi (50 mM). After 100-fold dilution into the same medium (300 ml) and outgrowth at 37° C. to an OD600 of 0.20, IPTG was added to a final concentration of 1 mM to induce the expression of PtNTT2. After 40 min, the cultures were rapidly cooled to 0° C., washed with sterile water (3×150 ml), and resuspended in 10% glycerol (1.5 ml).
An aliquot of electrocompetent C41(DE3)-pACS cells (50 μL) was mixed with pINF (2 μL, 400 ng), and electroporated in a 0.2 cm gap cuvette. […]
The cells were resuspended in fresh 2×YT medium (1.5 ml, 50 μg/ml streptomycin, 100 μg/ml ampicillin, 1 mM IPTG, 50 mM KPi, 0.25 mM dNaMTP, 0.25 mM d5SICSTP) and grown at 37° C. with shaking (250 rpm). At defined time points, OD600 was determined and aliquots (100 μl) were removed and centrifuged (8000 rfu for 5 min, 4° C.). Spent media was analyzed for nucleotide composition by HPLC and pINF was recovered by spin column purification (Zymo Research Corp.). […]
After recovery, the cells were centrifuged (4000 rfu for 5 min, 4° C.), spent media (0.15 ml) was removed and analyzed for nucleotide composition by HPLC. […]

PtNTT2 [2] = test: [α-32P]-dATP uptake into E. coli C41(DE3) expressing NTT, TLC/phosphorimaging; type: cell-based, Phaeodactylum tricornutum; conditions: for dATP transport into cells by NTT: PtNTT2
Procedure: as §1
(§2) To analyze the intracellular dephosphorylation of dATP, after induction of an NTT, an uptake reaction was initiated by the addition of dATP (spiked with [α-^32P]-dATP) to a final concentration of 0.25 mM, followed by incubation at 37° C. with shaking for 30 min. A culture was then centrifuged (8,000 rfu for 5 min, RT). Supernatant was analyzed by thin layer chromatography (TLC), while cell pellets were washed 3 times with ice cold KPi (50 mM, 100 μL) to remove excess radioactive substrate, lysed with NaOH (0.2 M, 100 μl) and centrifuged (10,000 rfu for 5 min RT) to pellet the cell debris, before the supernatant (1.5 μl) was analyzed by TLC.
Samples (1 μl) were applied on a 0.5 mm polyethyleneimine cellulose TLC plate and eluted first by sodium formate (0.5 M, pH 3.0) for 30 sec, then by sodium formate (2.5 M, pH 3.0) for 2.5 m, and finally by sodium formate (4.0 M, pH 3.0) for 40 m. Plates were dried using a heat gun and quantified by phosphorimaging and imaging software.
The experiments described herein illustrate the plasmid-based expression of eight different NTTs in E. coli C41(DE3) (Table 9A). The uptake of [α-^32P]-dATP was examined as a surrogate for the unnatural triphosphates (FIG. 5).

TpNTT2 = test: as above; type: cell-based, Thalassiosira pseudonana
Procedure: as §1
as §2, with “TLC. […]” for “TLC.”

PamNTT2 = test: as above; type: cell-based, Protochlamydia amoebophila
Procedure: as §1
as §2, with “TLC. […]” for “TLC.”

PamNTT5 = test: as above; type: cell-based, Protochlamydia amoebophila
Procedure: as §1
as §2, with “TLC. […]” for “TLC.”

[3] = Nucleotide extraction from cells for HPLC analysis: recovery and triphosphate decomposition; set-up: species or system E. coli; conditions: ratio of 3P composition before and after extraction
Procedure: To minimize the effect of the lysis and triphosphate extraction protocols on the decomposition of nucleoside triphosphate within the cell, the following extraction procedure was discovered that led to an unexpectedly highest recovery with and low extent of decomposition (Table 9). Cells were grown, washed, and then 5 nmol of either dNaMTP or d5SICSTP was added to the pellets, which were then subjected to various types of extractions including boiling water, hot ethanol, cold methanol, freeze and thaw, lysozyme, glass beads, NaOH, trichloroacetic acid (TCA) with Freon, and perchloric acid (PCA) with KOH. The recovery and composition of the control was quantified by HPLC. […] Pellets were resuspended in ice cold KPi (50 mM, 250 μl) before addition of NaOH to decrease dephosphorylation after cell lysis (Method 4).

Q: With Cc1ccc2c(=S)n([C@H]3C[C@H](O)[C@@H](CO)O3)ccc2c1 [(d)5SICS] as the molecule, how does the “addition to DNA primer by polymerase (gel band shift)” value (Polymerase) read?
A: extension by one base

Q: Which “addition to DNA primer by polymerase (gel band shift)” value (Polymerase) does the source give for COc1cc2ccccc2cc1[C@H]1C[C@H](O)[C@@H](CO)O1 [(d)NaM] here?
A: extension by one base

Q: With O=P(O)(O)O [KPi, potassium phosphate, reference compound] as the molecule, how does the “inhibition of dephosphorylation of unnatural triphosphates” value (actively growing E. coli; growing bacterial culture) read?
A: significantly inhibited

Q: With Cc1ccc2c(=S)n([C@H]3C[C@H](O)[C@@H](COP(=O)(O)OP(=O)(O)OP(=O)(O)O)O3)ccc2c1 [d5SICSTP] as the molecule, how does the “import into E. coli by PtNTT2” value (PtNTT2 [1]) read?
A: efficiently imported

Q: And the “degradation of triphosphate in the presence of actively growing E. coli” value (actively growing E. coli)?
A: degraded

Q: What about the “effect of added triphosphates on E. coli growth / toxicity” value (E. coli C41(DE3)) of the same molecule?
A: only a slight decrease in growth

Q: Which “[α-32P]-dATP uptake as a function of transporter induction” value (PtNTT2 [2]; 1 mM IPTG induction, media containing 50 mM KPi) does the source give for Nc1ncnc2c1ncn2[C@H]1C[C@H](O)[C@@H](COP(=O)(O)OP(=O)(O)OP(=O)(O)O)O1 [dATP] here?
A: maximal

Q: And the “dATP transport into cells by NTT” value (PtNTT2 [2])?
A: efficiently transported

Q: And the “dATP transport into cells by NTT” value (PtNTT2 [2]; listed as [α-^32P]-dATP)?
A: significantly more active

Q: And the “dATP transport into cells by NTT” value (TpNTT2)?
A: efficiently transported

Q: What about the “dATP uptake by NTT” value (PamNTT2) of the same molecule?
A: measurable uptake

Q: And the “dATP uptake by NTT” value (PamNTT5)?
A: measurable uptake

Q: What about the “extracellular stability in the presence of potassium phosphate (KPi)” value (actively growing E. coli; KPi in growth medium) of the same molecule?
A: significantly increased

Q: Which “import into E. coli by PtNTT2” value (PtNTT2 [1]) does the source give for COc1cc2ccccc2cc1[C@H]1C[C@H](O)[C@@H](COP(=O)(O)OP(=O)(O)OP(=O)(O)O)O1 [dNaMTP] here?
A: efficiently imported

Q: And the “degradation of triphosphate in the presence of actively growing E. coli” value (actively growing E. coli)?
A: degraded

Q: And the “effect of added triphosphates on E. coli growth / toxicity” value (E. coli C41(DE3))?
A: only a slight decrease in growth

Q: With COc1cc2ccccc2cc1[C@H]1C[C@H](O)[C@@H](CO)O1 [dNaM] as the molecule, how does the “Triphosphate stability, %” value ([3]; Method 1 TCA with Freon) read?
A: 92%

Q: And the “Triphosphate stability, %” value ([3]; Method 2 PCA w/KOH)?
A: 98%

Q: And the “Triphosphate stability, %” value ([3]; Method 3 NaOH w/KOAc)?
A: 86%

Q: And the “Triphosphate stability, %” value ([3]; Method 4 NaOH w/KOAc supplemented w/ KPi (50 mM))?
A: 99%
